# According to publication PMC10467108, “Of Seven New K^+ Channel Inhibitor Peptides of Centruroides bonito, α-KTx 2.24 Has a Picomolar Affinity for Kv1.2” (Toxins, 2023):
# Where a SMILES comes first, the peptide text is derived from it. Bridges are numbered along the chain shown (N, C = ends).
# Tests used:
# Format in all cases: cell-based
# hKv1.1 = target: T1, hKv1.1 (Homo sapiens, UniProt Q09470); assay: Whole-cell patch-clamp of Kv1.1 currents in transiently transfected CHO cells
# T1 construct: host or cells: CHO cells, transient transfection (Lipofectamine 2000)
# T1 sequence (Q09470 whole entry): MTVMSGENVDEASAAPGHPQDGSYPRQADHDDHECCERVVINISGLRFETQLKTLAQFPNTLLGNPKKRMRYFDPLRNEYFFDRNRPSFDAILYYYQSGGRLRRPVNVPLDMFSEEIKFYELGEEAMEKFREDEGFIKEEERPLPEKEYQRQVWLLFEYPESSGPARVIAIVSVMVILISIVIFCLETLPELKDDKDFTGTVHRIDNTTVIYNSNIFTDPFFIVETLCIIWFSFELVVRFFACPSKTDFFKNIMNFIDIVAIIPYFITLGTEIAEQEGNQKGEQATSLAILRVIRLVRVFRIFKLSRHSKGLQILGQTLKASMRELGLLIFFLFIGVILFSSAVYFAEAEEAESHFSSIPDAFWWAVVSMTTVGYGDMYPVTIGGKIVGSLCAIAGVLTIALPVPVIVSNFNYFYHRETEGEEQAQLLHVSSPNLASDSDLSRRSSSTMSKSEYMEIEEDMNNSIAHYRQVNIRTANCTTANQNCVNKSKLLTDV
# Description: (§1) Macroscopic Kv1.1 and Kv1.2 currents were measured in transiently transfected CHO cells. For Kv1.3 current recording, human T lymphocytes were activated by Phytohemagglutinin A (PHA) to increase Kv1.3 channel expression, and micro-pipettes were filled with Ca^2+-free solution to prevent KCa3.1 channel activation. K^+ currents were evoked by applying 15-ms-long depolarization pulses to +50 mV from a holding potential of −120 mV except for Kv1.2, as it has highly variable activation kinetics; therefore, 15–500 ms-long pulses were applied to maximize the open probability of Kv1.2 channel. CboK peptide toxins were dissolved in a freshly prepared extracellular solution and applied to the whole-cell patch-clamped cells using a micro perfusion system at 200 μL/min flow rate.
# (§2) CHO cells were transiently transfected by using Lipofectamine 2000 kit (Invitrogen, Carlsbad, CA, USA), as per the manufacturer’s protocol with vector pCMV6-AC-GFP (cat# RG211000 and RC222200; OriGene Technologies, Rockville, MD, USA) encoding hKv1.1 (hKCNA1 gene) or hKv1.2 (hKCNA2 gene) ion channels. Cells were grown under standard conditions in an incubator at 37 °C and 5% CO2 for 24 h. GFP-positive transfected cells were identified by utilizing a Nikon TMS fluorescence microscope (Nikon, Tokyo, Japan) using bandpass filters of 455–495 nm and 515–555 nm for excitation and emission, respectively.
# (§3) The patch-clamp technique was used for measuring whole-cell currents in voltage-clamped mode using standard protocols. Electrophysiological recordings were acquired by using Multiclamp 700B amplifier connected to a personnel computer with an Axon Digidata1440 digitizer (Molecular Devices, Sunnyvale, CA, USA). Pipettes were pulled from GC150F-15 borosilicate capillaries (Harvard Apparatus, Kent, UK) having 3−5 MΩ tip resistance in the bath solution. All current recordings were carried out at room temperature (20−25 °C) and only those currents were recorded and subjected to analyses when the leak current at holding potential was <5% of peak current at the test potential. Current traces were lowpass-filtered by utilizing the built-in analog four-pole Bessel filters of the amplifiers and were sampled at 20 kHz which is at least twice the filter cut-off frequency. A gravity-driven perfusion system was used to perfuse the cells with control and test solutions and excess fluid was removed continuously through vacuum suction. The extracellular solution (bath solution) contained 145 mM NaCl, 5.5 mM glucose, 5 mM KCl, 2.5 mM CaCl2, 1 mM MgCl2, and 10 mM HEPES, having pH of 7.35 and an osmolarity between 302 and 308 mOsM/L. Toxins were dissolved in bath solution at different molar concentrations and supplemented with 0.1 mg/mL of bovine serum albumin BSA (Sigma-Aldrich, Budapest, Hungary). The intracellular solution (pipette filling) was comprised of 140 mM KF, 2 mM MgCl2, 1 mM CaCl2, 10 mM HEPES, and 11 mM EGTA, with a pH of 7.22 and an osmolarity of ~295 mOsM/L.
# (§4) Generally, to evoke the Kv1.xcurrents, 15-ms-long depolarization pulses to +50 mV from a holding potential of −120 mV were applied, and the current traces were recorded after every 15 s. However, in the case of Kv1.2, due to its variable activation kinetics, the duration of the depolarization pulse was set between 15 and 500 ms to attain the saturated peak current.
# Kv1.3 [1] = target: T2, Kv1.3 (Homo sapiens, UniProt P22001); assay: Whole-cell patch-clamp of Kv1.3 currents in PHA-activated human T lymphocytes
# T2 construct: endogenous in cells
# T2 sequence (P22001 whole entry): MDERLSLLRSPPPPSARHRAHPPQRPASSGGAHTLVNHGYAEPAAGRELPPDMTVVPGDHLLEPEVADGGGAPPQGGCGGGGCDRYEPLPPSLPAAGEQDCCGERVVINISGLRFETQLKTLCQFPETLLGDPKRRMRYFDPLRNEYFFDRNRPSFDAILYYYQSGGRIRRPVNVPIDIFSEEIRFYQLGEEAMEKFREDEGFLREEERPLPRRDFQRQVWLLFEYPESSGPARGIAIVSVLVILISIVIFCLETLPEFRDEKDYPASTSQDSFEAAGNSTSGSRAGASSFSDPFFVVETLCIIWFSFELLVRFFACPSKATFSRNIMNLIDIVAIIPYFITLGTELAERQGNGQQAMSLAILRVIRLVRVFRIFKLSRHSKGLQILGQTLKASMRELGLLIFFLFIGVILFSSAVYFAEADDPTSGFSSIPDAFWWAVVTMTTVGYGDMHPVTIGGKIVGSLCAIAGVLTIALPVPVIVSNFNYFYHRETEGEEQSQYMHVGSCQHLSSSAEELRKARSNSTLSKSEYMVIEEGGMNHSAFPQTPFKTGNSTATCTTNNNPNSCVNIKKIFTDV
# Description: as §1
# Isochronal RCF data points obtained this way (isochronal RCF = I4ms/I4ms,0 where I4ms,0 and I4ms are the currents at 4 ms time point in the absence and presence of CboK peptides, respectively) at different toxin concentrations were fitted with the Hill equation to obtain concentration–response curves as shown in Figure 6H.
# Human peripheral venous blood was acquired from anonymous healthy volunteers from the blood bank. Blood samples were collected by having approval from the Ethical Committee of the Hungarian Medical Research Council (36255-6/2017/EKU). PBMCs were separated by Histopaque 1077 (Sigma-Aldrich, Budapest, Hungary) separation technique, and isolated cells, at the density of 5 × 10^5 cells, were cultured in RPMI 1640 media (Gibco, Grand Island, NY, USA) supplemented with 10% FBS (Sigma-Aldrich, Budapest, Hungary), 2 mM L-glutamine, […], and […] penicillin in a humidified incubator at 37 °C and 5% CO2 for 3–6 days. A measure of 2, 5, or 10 μg/mL of Phytohemagglutinin A (PHA) (Sigma-Aldrich, Budapest, Hungary) was added in cultured cells to activate the PBMCs and upregulate the Kv1.3 expression.
# as §3, with “suction.” for “suction. The extracellular solution (bath solution) contained 145 mM NaCl, 5.5 mM glucose, 5 mM KCl, 2.5 mM CaCl2, 1 mM MgCl2, and 10 mM HEPES, having pH of 7.35 and an osmolarity between 302 and 308 mOsM/L. Toxins were dissolved in bath solution at different molar concentrations and supplemented with 0.1 mg/mL of bovine serum albumin BSA (Sigma-Aldrich, Budapest, Hungary). The intracellular solution (pipette filling) was comprised of 140 mM KF, 2 mM MgCl2, 1 mM CaCl2, 10 mM HEPES, and 11 mM EGTA, with a pH of 7.22 and an osmolarity of ~295 mOsM/L.”
# Kv1.3 [2] = target: T2, Kv1.3; assay: as above; settings: 1 µM toxin, end of 15-ms pulse to 0 mV (Figure 6E)
# hKv1.2 = target: T3, hKv1.2 (Homo sapiens, UniProt P16389); assay: Whole-cell patch-clamp of Kv1.2 currents in transiently transfected CHO cells; settings: Hill fit of RCF vs toxin concentration, n ≥ 3
# T3 construct: GFP (C); host or cells: CHO cells, transient transfection (Lipofectamine 2000)
# T3 sequence (P16389 whole entry): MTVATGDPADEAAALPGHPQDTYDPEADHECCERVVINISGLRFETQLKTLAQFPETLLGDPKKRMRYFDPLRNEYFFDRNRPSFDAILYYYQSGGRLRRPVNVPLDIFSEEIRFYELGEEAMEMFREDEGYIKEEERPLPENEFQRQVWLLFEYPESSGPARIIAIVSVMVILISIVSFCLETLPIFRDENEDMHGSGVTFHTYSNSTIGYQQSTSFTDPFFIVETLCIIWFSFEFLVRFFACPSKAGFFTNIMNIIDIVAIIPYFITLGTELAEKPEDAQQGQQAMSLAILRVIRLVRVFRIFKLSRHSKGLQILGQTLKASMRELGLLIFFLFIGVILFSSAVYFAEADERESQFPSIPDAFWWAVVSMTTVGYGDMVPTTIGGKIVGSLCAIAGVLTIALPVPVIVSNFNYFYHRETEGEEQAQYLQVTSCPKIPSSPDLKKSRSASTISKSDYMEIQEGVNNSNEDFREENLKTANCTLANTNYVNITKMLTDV
# Description: as §1, §2, §3, §4
compound,measurement,setting,value
"CC[C@H](C)[C@@H]1NC(=O)[C@@H]2CSSC[C@H](NC(=O)[C@@H](NC(=O)[C@@H](N)[C@@H](C)O)C(C)C)C(=O)N[C@@H](C(C)C)C(=O)N[C@@H](Cc3ccc(O)cc3)C(=O)N[C@@H](CCCNC(=N)N)C(=O)N[C@@H]([C@@H](C)O)C(=O)N[C@H]3CSSC[C@H](NC(=O)[C@H](C)NC(=O)[C@H](CC(N)=O)NC(=O)[C@H](CC(N)=O)NC1=O)C(=O)N[C@@H](CCCCN)C(=O)N[C@H](C(=O)N[C@@H](Cc1ccc(O)cc1)C(=O)N1CCC[C@H]1C(=O)N[C@@H](Cc1ccc(O)cc1)C(=O)O)CSSC[C@H](NC(=O)[C@H](CC(=O)O)NC(=O)[C@H](CCCCN)NC(=O)[C@H](CC(=O)O)NC3=O)C(=O)N[C@@H](CCCCN)C(=O)N[C@@H](CCCNC(=N)N)C(=O)N[C@@H](CCCNC(=N)N)C(=O)NCC(=O)N[C@@H](Cc1ccc(O)cc1)C(=O)N[C@@H](CCCNC(=N)N)C(=O)N[C@@H](CO)C(=O)NCC(=O)N[C@@H](CCCCN)C(=O)N2 [CboK2] (H-TVCVYRTCDKDCKRRGYRSGKCINNACKCYPY-OH; disulfide 3-22, 8-27, 12-29)",effect on Kv1.1 currents,hKv1.1; 100 nM toxin,did not block
same,Kd,"hKv1.1; this study, screened at 100 nM, read-out: Kd Values Kv1.1 (symbol)",> 0.1 µM
same,remaining current fraction (RCF) of Kv1.3 at +50 mV,"Kv1.3 [1]; 1 µM toxin, end of 15-ms pulse to +50 mV (Figure 6C)",~ 0.34
same,"Hill coefficient H, Kv1.3 block","Kv1.3 [1]; Hill fit of isochronal RCF (4 ms), n ≥ 3",0.8
same,Kd,"Kv1.3 [1]; Hill fit of isochronal RCF (current at 4 ms), 15-ms pulses to +50 mV from -120 mV, n ≥ 3, read-out: Kd for Kv1.3",0.171 µM
same,remaining current fraction (RCF) of Kv1.3 at 0 mV,Kv1.3 [2],~ 0.23
same,Kd,"hKv1.2; cumulative application, equilibrium block, pulses to +50 mV from -120 mV, read-out: Kd for Kv1.2",0.000763 µM
same,"Hill coefficient H, Kv1.2 block",hKv1.2,1.5
